Laboratory results reported in ChEMBL document CHEMBL1129469, “Nonpeptide angiotensin II receptor antagonists: the next generation in antihypertensive therapy” (J Med Chem, 1996).
Positions count from the first letter of the chain named. One block for each compound: values may come before it.

Tests used:
[1] = biological target: T1, Angiotensin II receptor (AT-1) type-1 (Rattus norvegicus, UniProt P29089+P25095); assay: Inhibitory activity against Angiotensin II receptor, type 1; type: protein assay
T1 sequence (P29089 whole entry): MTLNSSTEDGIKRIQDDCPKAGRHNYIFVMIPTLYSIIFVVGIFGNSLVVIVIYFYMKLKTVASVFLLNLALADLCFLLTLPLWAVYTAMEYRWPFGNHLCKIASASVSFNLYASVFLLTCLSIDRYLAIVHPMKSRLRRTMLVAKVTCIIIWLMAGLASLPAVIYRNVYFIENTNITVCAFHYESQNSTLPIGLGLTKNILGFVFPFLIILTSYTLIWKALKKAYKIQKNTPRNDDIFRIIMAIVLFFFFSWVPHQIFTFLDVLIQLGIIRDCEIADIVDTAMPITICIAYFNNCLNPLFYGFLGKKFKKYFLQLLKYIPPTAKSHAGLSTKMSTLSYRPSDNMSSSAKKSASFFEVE
T1 sequence (P25095 whole entry): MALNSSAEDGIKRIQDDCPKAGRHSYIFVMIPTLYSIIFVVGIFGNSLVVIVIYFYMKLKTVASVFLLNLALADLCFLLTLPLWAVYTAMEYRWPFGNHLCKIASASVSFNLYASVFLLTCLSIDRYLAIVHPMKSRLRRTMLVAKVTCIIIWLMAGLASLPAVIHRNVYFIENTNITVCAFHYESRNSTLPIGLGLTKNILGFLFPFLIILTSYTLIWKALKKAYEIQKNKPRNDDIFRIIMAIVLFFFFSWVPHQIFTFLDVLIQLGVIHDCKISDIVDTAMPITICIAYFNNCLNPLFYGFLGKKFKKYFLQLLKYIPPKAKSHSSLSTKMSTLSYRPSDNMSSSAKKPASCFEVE

[2] = test system: Rattus norvegicus; assay: Intravenous effective dose required for lowering blood pressure in renal hypertensive rats (RHR); type: functional
[3] = biological target: T2, Type-1 angiotensin II receptor (Homo sapiens, UniProt P30556); assay: Ki value was evaluated against Angiotensin II receptor, type 1
T2 sequence (P30556 whole entry): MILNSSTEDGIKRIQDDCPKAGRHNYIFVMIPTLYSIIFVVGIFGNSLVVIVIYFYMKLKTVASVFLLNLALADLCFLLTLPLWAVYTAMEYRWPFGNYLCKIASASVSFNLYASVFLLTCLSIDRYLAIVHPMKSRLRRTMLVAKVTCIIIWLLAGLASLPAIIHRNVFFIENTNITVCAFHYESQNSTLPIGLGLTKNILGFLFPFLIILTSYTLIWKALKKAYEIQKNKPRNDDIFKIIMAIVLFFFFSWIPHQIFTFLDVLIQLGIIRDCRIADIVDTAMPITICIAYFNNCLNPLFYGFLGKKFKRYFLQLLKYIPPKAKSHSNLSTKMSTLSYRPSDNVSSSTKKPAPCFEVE

[4] = biological target: T3, Type-2 angiotensin II receptor (Homo sapiens, UniProt P50052); assay: Ki value was evaluated against Angiotensin II receptor, type 2
T3 sequence (P50052 whole entry): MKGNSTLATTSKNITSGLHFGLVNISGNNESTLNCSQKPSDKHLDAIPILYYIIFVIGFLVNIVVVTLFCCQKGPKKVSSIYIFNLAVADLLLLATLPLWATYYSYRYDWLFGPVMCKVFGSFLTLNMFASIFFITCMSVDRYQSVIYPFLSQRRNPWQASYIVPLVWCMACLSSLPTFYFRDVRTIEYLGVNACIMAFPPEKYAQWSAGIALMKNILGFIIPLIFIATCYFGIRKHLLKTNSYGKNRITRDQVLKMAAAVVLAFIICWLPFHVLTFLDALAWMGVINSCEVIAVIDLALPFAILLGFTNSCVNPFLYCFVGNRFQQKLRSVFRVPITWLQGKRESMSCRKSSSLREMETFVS

[5] = species on record: Oryctolagus cuniculus; assay: Compound was tested for its antagonistic activity against angiotensin II-induced contractions in rabbit aorta; type: functional
[6] = biological target: T1, Angiotensin II receptor (AT-1) type-1; assay: In vitro antagonistic potency against Angiotensin II receptor, type 1 in rat adrenal cortex; type: functional, tissue-based
[7] = biological target: T2, Type-1 angiotensin II receptor; assay: (§1) Inhibition of Angiotensin II receptor, type 1
[8] = biological target: T3, Type-2 angiotensin II receptor; assay: Inhibition of Angiotensin II receptor, type 2
[9] = species on record: Rattus norvegicus; assay: Oral effective dose required for lowering blood pressure in renal hypertensive rats (RHR); type: functional
[10] = biological target: T4, Type-2 angiotensin II receptor (Rattus norvegicus, UniProt P35351); assay: Inhibitory activity at Angiotensin II type 2 receptor.
T4 sequence (P35351 whole entry): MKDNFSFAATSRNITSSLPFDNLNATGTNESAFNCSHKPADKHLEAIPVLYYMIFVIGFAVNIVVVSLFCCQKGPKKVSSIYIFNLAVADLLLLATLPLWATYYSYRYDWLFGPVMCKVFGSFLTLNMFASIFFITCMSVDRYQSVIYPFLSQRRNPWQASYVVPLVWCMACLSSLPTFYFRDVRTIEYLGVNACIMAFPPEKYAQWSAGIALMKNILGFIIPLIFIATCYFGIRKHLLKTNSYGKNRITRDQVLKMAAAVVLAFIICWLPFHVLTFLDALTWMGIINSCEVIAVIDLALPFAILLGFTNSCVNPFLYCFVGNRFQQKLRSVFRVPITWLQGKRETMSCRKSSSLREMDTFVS

[11] = Oral bioavailability in dog; type: ADME, organism-based, Canis lupus familiaris; details: in vivo
[12] = Oral bioavailability in rat; type: ADME, organism-based; details: in vivo
[13] = biological target: T1, Angiotensin II receptor (AT-1) type-1; assay: Inhibitory activity against Angiotensin II receptor, type 1 in rat aortic membranes; type: cell membranes
[14] = biological target: T5, Type-1 angiotensin II receptor (Oryctolagus cuniculus, UniProt P34976); assay: as §1
T5 sequence (P34976 whole entry): T2 sequence (P30556 whole entry) with I2M, V49A, I254V, I270V, R272H, R311K, T349S, A353V

- IC50 [1]: > 100000 nM
Structure (SMILES): COc1ccc2c(c1OCc1ccccc1)C[C@@H](C(=O)O)N(C(=O)C(c1ccccc1)c1ccccc1)C2 [OLODANRIGAN]

- Ki [3]: 20 nM
- Ki [4]: 730 nM
Structure (SMILES): CCCCCN(C(=O)NC)c1ccc2nc(CCCC)n(Cc3ccc(NC(=O)c4c(Cl)ccc(Cl)c4C(=O)O)cc3)c2c1
- ED30 [2]: 2 mg/kg

- Ki [6]: 4400 nM
Structure (SMILES): CCCCCCC(C(=O)O)n1cnc(NC(=O)c2cccc(O)c2C(=O)O)c1 (stereo not drawn)
- Kb [5]: 78 nM

- IC50 ([1]; read-out: IC50): 6 nM
Structure (SMILES): CCCCc1nc2ccc(C(C)(C)OC)cc2c(=O)n1Cc1ccc(-c2ccccc2-c2nn[nH]n2)cc1 [CL-329167]

- IC50 [7]: 0.2 nM
- IC50 [8]: 0.12 nM
Structure (SMILES): CCCCC(=O)Nc1ccc(Br)c(-n2nc(CC)n(Cc3ccc(-c4ccccc4S(=O)(=O)NC(=O)OC(C)(C)C)cc3F)c2=O)c1

Structure (SMILES): CCCCc1nc(Cl)c(CO)n1Cc1ccc(-c2ccccc2C(=O)O)cc1
- ED30 [9]: 3.7 mg/kg

- IC50 [7]: 1.1 nM
Structure (SMILES): CCCCOC(=O)NS(=O)(=O)c1sc(CC(C)C)cc1-c1ccc(Cn2c(CC)nc3c(C)cc(C)nc32)cc1

- IC50 [1]: > 100000 nM
- IC50 [10]: 70 nM
Structure (SMILES): COc1ccc(Cn2cnc3c2C[C@@H](C(=O)O)N(C(=O)C(c2ccccc2)c2ccccc2)C3)cc1C

- IC50 [7]: > 100000 nM
Structure (SMILES): Cc1cc(Cn2cnc3c2C[C@@H](C(=O)O)N(C(=O)C(c2ccccc2)c2ccccc2)C3)ccc1N

- IC50 ([1]; read-out: IC50): 0.24 nM
- bioavailability [11]: 34%
- IC50 [10]: 0.29 nM
- bioavailability [12]: 45%
Structure (SMILES): CCCc1nc2c(C)c(NC(=O)c3ccccc3)cnc2n1Cc1ccc(-c2ccccc2S(=O)(=O)NC(=O)OCCC(C)C)cc1

- IC50 [7]: 4 nM
- IC50 [8]: 24 nM
Structure (SMILES): CCCc1ccc2c(c1)-c1ccc(cc1)Cn1c(CCC)nc3ccc(cc3c1=O)NCCCCCCC(=O)NS2(=O)=O

- IC50 [13]: 0.6 nM
Structure (SMILES): CCCCc1nc2cccnc2n1Cc1ccc(-c2ccccc2-c2nnn[nH]2)cc1

- IC50 [1]: > 100000 nM
Structure (SMILES): Cc1cc(Cn2cnc3c2C[C@@H](C(=O)O)N(C(=O)C(c2ccccc2)c2ccccc2)C3)ccc1N(C)C.O=C(O)C(F)(F)F.O=C(O)C(F)(F)F

- IC50 [10]: 300 nM
Structure (SMILES): CCCCc1nc2ccn(CC(=O)N(c3ccccc3)c3ccccc3)c(=O)c2n1Cc1ccc(-c2ccccc2-c2nnn[nH]2)cc1

- IC50 ([1]; read-out: IC50): 0.26 nM
- IC50 [10]: 0.28 nM
Structure (SMILES): CCCC(=O)N(CCC(=O)c1c(CC)nc(CCC)n1Cc1ccc(-c2ccccc2S(=O)(=O)NC(=O)OCCC(C)C)cc1F)c1cccnc1
- ED30 [9]: 0.27 mg/kg

- IC50 [14]: 0.3 nM
- IC50 [10]: 2 nM
Structure (SMILES): CCCc1ccc(-c2nnn[nH]2)c(-c2ccc(Cn3c(CC)nc4c(C)cc(C)nc43)cc2)c1

- IC50 ([1]; read-out: IC50): 3 nM
Structure (SMILES): CCCc1nc(C(F)(F)C(F)(F)F)c(C(=O)O)n1Cc1ccc(-c2ccccc2-c2nn[nH]n2)cc1Br

- IC50 [14]: 1.9 nM
Structure (SMILES): CCCc1nc(CC)c(C=O)n1Cc1ccc(-c2ccccc2S(=O)(=O)NC(=O)c2ccccc2)cc1

- IC50 [1]: > 100000 nM
- IC50 [10]: 30 nM
Structure (SMILES): O=C(O)[C@@H]1Cc2cc(-c3ccccc3)ccc2CN1C(=O)C(c1ccccc1)c1ccccc1

- IC50 [10]: 450 nM
Structure (SMILES): CCCCc1nn(-c2ccccc2C(F)(F)F)c(=O)n1Cc1ccc(-c2ccccc2S(=O)(=O)NC(=O)c2ccccc2)cc1 [L-159913]
